Reference: patent EP4806898A1, “HETEROARYL DERIVATIVE COMPOUND AND USE THEREOF” (Voronoi Inc., priority 2023, dated 2025)

Experiments:
[1] = target: T1, recombinant USP1 protein (Homo sapiens, UniProt O94782, DEL125-138/DEL229-408/DEL608-737); assay: Binding affinity to recombinant USP1 protein by differential scanning fluorimetry; settings: compound 100 µM; 0.03 mg/mL USP1 (Δ1-66, Δ125-138, Δ229-408, Δ608-737); Tm with compound minus Tm with DMSO; read-out: ΔTm (°C)
T1 sequence (O94782 with tags, fused parts or gaps DEL125-138/DEL229-408/DEL608-737): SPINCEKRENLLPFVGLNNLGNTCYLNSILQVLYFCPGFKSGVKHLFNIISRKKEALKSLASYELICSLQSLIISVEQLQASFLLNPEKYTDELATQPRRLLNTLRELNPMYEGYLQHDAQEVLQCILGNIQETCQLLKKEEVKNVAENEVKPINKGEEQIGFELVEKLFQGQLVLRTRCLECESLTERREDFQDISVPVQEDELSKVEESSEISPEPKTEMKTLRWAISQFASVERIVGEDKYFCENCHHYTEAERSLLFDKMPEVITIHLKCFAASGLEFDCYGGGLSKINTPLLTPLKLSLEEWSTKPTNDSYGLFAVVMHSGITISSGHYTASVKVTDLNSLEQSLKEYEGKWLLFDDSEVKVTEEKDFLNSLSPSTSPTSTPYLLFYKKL
Outline: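 Thermal shift readout: ΔTm is the compound-well melting temperature less the DMSO-well value, measured by real-time PCR. Compounds tested at 100 µM final against 0.03 mg/mL truncated USP1 (Δ1-66, Δ125-138, Δ229-408, Δ608-737) in pH 8.0 Tris buffer containing 150 mM NaCl, 2% glycerol, 1 mM DTT.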

[2] = test system: UWB1.289 cells; assay: Cell proliferation inhibitory activity in BRCA1/2-mutant or HRD-positive cells (Cell Titer-Glo); assay type: cell-based; settings: UWB1289; UWB1.289 cells, 144 hours after compound treatment, Cell Titer-Glo, 1.5 nM to 10 µM; read-out: GI50 UWB1.289 BRCA1 mut
Description: <Experimental Example 2> Evaluation of Cell Proliferation Inhibitory Activity in BRCA1/2-Mutant or HRD-Positive Cells
To evaluate the inhibitory activity of the compound according to the present invention on the proliferation of BRCA1/2 mutants or homologous recombination deficient (HRD) positive cell lines, the following experiments were performed. UWB1.289 cells were cultured in medium (50% MEBM + 50% RPMI1640), and 1,000 cells were seeded in a well plate (black clear bottom 96-well plate, Corning) 16 to 24 hours prior to compound treatment. The compounds were diluted in dimethyl sulfoxide (3-fold serial dilution starting at 10 µM, for a total of 10 concentrations) and injected at 1 µl per well, resulting a final concentration range of […] to 10 µM. Measurements of live cells were performed by a reaction in a 37 °C and CO2 incubator for 144 hours after compound treatment. The cells were incubated for 10 minutes in an incubator using Cell Titer-Glo luminescent cell-viability reagent (Promega), and luminescence intensity thereof was measured using a reader (SynergyNeo2, Biotek). GI50 values were calculated using the GraphPad Prism version 8.4.3 (GraphPad software Inc., San Diego) program.

| ΔTm at 100 µM [1] [°C] | Structure (SMILES) | GI50 [2] [nM] |
| --- | --- | --- |
| > 5 | COc1ncnc(C2CC2)c1-c1ncc2cc(C(=O)N3CCN(C4COC4)CC3)n(Cc3ccc(-c4nc(C(F)(F)F)cn4C(C)C)cc3)c2n1 [Example 25, (2-(4-cyclopropyl-6-methoxypyrimid in-5-yl)-7-(4-(1-isopropyl-4-(trifluoromethyl)-1H-imidazol-2-yl)benzyl)-7H-pyrrolo[2,3-d]pyrimidin-6-yl) (4-(oxetan-3-yl)piperazin-1-yl)methanone] | < 100 |
| > 5 | CNCCN(C)C(=O)c1cc2cnc(-c3c(OC)ncnc3C3CC3)nc2n1Cc1ccc(-c2nc(C(F)(F)F)cn2C(C)C)cc1 [Example 26, 2-(4-cyclopropyl-6-methoxypyrimidin-5-yl)-7-(4-(1-isopropyl-4-(trifluoromethyl)-1H-imidazol-2-yl)benzyl)-N-methyl-N-(2-(methylamino)ethyl)-7H-pyrrolo[2,3-d]pyrimidine-6-carboxamide] | < 100 |
| > 5 | COc1ncnc(C2CC2)c1-c1ncc2cc(C(=O)Nc3cccc4ccccc34)n(Cc3ccc(-c4nc(C(F)(F)F)cn4C(C)C)cc3)c2n1 [Example 28, 2-(4-cyclopropyl-6-methoxypyrimidin-5-yl)-7-(4-(1-isopropyl-4-(trifluoromethyl)-1H-imidazol-2-yl)benzyl)-N-(naphthalen-1-yl)-7H-pyrrolo[2,3-d]pyrimidine-6-carboxamide] | < 100 |
| > 5 | COc1ncnc(C2CC2)c1-c1ncc2cc(C(=O)NCC(C)=O)n(Cc3ccc(-c4nc(C(F)(F)F)cn4C(C)C)cc3)c2n1 [Example 29, 2-(4-cyclopropyl-6-methoxypyrimidin-5-yl)-7-(4-(1-isopropyl-4-(trifluoromethyl)-1H-imidazol-2-yl)benzyl)-N-(2-oxopropyl)-7H-pyrrolo[2,3-d]pyrimidine-6-carboxamide] | < 100 |
| > 5 | COc1ncnc(C2CC2)c1-c1ncc2cc(C(=O)Nc3cnn(C)c3)n(Cc3ccc(-c4nc(C(F)(F)F)cn4C(C)C)cc3)c2n1 [Example 30, 2-(4-cyclopropyl-6-methoxypyrimidin-5-yl)-7-(4-(1-isopropyl-4-(trifluoromethyl)-1H-imidazol-2-yl)benzyl)-N-(1-methyl-1H-pyrazol-4-yl)-7H-pyrrolo[2,3-d]pyrimidine-6-carboxamide] | < 100 |
| > 5 | COc1ncnc(C2CC2)c1-c1ncc2cc(C(=O)Nc3nccs3)n(Cc3ccc(-c4nc(C(F)(F)F)cn4C(C)C)cc3)c2n1 [Example 31, 2-(4-cyclopropyl-6-methoxypyrimidin-5-yl)-7-(4-(1-isopropyl-4-(trifluoromethyl)-1H-imidazol-2-yl)benzyl)-N-(thiazol-2-yl)-7H-pyrrolo[2,3-d]pyrimidine-6-carboxamide] | 100 to 500 |
| > 5 | COc1ncnc(C2CC2)c1-c1ncc2cc(C(N)=O)n(Cc3ccc(-c4nc(C(F)(F)F)cn4C(C)C)cc3)c2n1 [Example 32, 2-(4-cyclopropyl-6-methoxypyrimidin-5-yl)-7-(4-(1-isopropyl-4-(trifluoromethyl)-1H-imidazol-2-yl)benzyl)-7H-pyrrolo[2,3-d]pyrimidine-6-carboxamide] | < 100 |
| > 5 | COc1ncnc(C2CC2)c1-c1ncc2cc(C(=O)NCCCN(C)C)n(Cc3ccc(-c4nc(C(F)(F)F)cn4C(C)C)cc3)c2n1 [Example 33] | < 100 |
| > 5 | COc1ncnc(C2CC2)c1-c1ncc2cc(C(=O)NCCC(F)(F)F)n(Cc3ccc(-c4nc(C(F)(F)F)cn4C(C)C)cc3)c2n1 [Example 34, 2-(4-cyclopropyl-6-methoxypyrimidin-5-yl)-7-(4-(1-isopropyl-4-(trifluoromethyl)-1H-imidazol-2-yl)benzyl)-N-(3,3,3-trifluoropropyl)-7H-pyrrolo[2,3-d]pyrimidine-6-carboxamide] | 100 to 500 |
| > 5 | COc1ncnc(C2CC2)c1-c1ncc2cc(C(=O)N3CC4(COC4)C3)n(Cc3ccc(-c4nc(C(F)(F)F)cn4C(C)C)cc3)c2n1 [Example 35, (2-(4-cyclopropyl-6-methoxypyrimid in-5-yl)-7-(4-(1-isopropyl-4-(trifluoromethyl)-1H-imidazol-2-yl)benzyl)-7H-pyrrolo[2,3-d]pyrimidin-6-yl) (2-oxa-6-azaspiro[3.3]heptan-6-yl)methanone] | < 100 |
| > 5 | COc1ncnc(C2CC2)c1-c1ncc2cc(C(=O)NC3CNC3)n(Cc3ccc(-c4nc(C(F)(F)F)cn4C(C)C)cc3)c2n1 [Example 36, N-(azetidin-3-yl)-2-(4-cyclopropyl-6-methoxypyrimidin-5-yl)-7-(4-(1-isopropyl-4-(trifluoromethyl)-1H-imidazol-2-yl)benzyl)-7H-pyrrolo[2,3-d]pyrimidine-6-carboxamide] | 100 to 500 |
| > 5 | CCCNC(=O)c1cc2cnc(-c3c(OC)ncnc3C3CC3)nc2n1Cc1ccc(-c2nc(C(F)(F)F)cn2C(C)C)cc1 [Example 37, 2-(4-cyclopropyl-6-methoxypyrimidin-5-yl)-7-(4-(1-isopropyl-4-(trifluoromethyl)-1H-imidazol-2-yl)benzyl)-N-propyl-7H-pyrrolo[2,3-d]pyrimidine-6-carboxamide] | < 100 |
| > 5 | COc1ncnc(C2CC2)c1-c1ncc2cc(C(=O)N(C)CCN(C)C)n(Cc3ccc(-c4nc(C(F)(F)F)cn4C(C)C)cc3)c2n1 [Example 38, 2-(4-cyclopropyl-6-methoxypyrimidin-5-yl)-N-(2-(dimethylamino)ethyl)-7-(4-(1-isopropyl-4-(trifluoromethyl)-1H-imidazol-2-yl)benzyl)-N-methyl-7H-pyrrolo [2,3-d]pyrimidine-6-carboxamide] | < 100 |
| > 5 | COc1ncnc(C2CC2)c1-c1ncc2cc(C(=O)N3CC[C@@H](N(C)C)C3)n(Cc3ccc(-c4nc(C(F)(F)F)cn4C(C)C)cc3)c2n1 [Example 39, (R)-(2-(4-cyclopropyl-6-methoxypyrimidin-5-yl)-7-(4-(1-isopropyl-4-(trifluoromethyl)-1H-imidazol-2-yl)benzyl)-7H-pyrrolo[2,3-d]pyrimidin-6-yl) (3-(dimethylamino)pyrrolidin-1-yl)methanone] | 100 to 500 |
| > 5 | COc1ncnc(C2CC2)c1-c1ncc2cc(C(=O)N3CC(F)(F)C3)n(Cc3ccc(-c4nc(C(F)(F)F)cn4C(C)C)cc3)c2n1 [Example 40, (2-(4-cyclopropyl-6-methoxypyrimid in-5-yl)-7-(4-(1-isopropyl-4-(trifluoromethyl)-1H-imidazol-2-yl)benzyl)-7H-pyrrolo[2,3-d]pyrimidin-6-yl) (3,3-difluoroazetid in-1-yl)methanone] | 100 to 500 |
| > 5 | COc1ncnc(C2CC2)c1-c1ncc2cc(C(=O)NC3CCNC3)n(Cc3ccc(-c4nc(C(F)(F)F)cn4C(C)C)cc3)c2n1 (stereo not drawn) [Example 41, 2-(4-cyclopropyl-6-methoxypyrimidin-5-yl)-7-(4-(1-isopropyl-4-(trifluoromethyl)-1H-imidazol-2-yl)benzyl)-N-(pyrrolidin-3-yl)-7H-pyrrolo[2,3-d]pyrimidine-6-carboxamide] | < 100 |
| > 5 | CCN(CC)C(=O)c1cc2cnc(-c3c(OC)ncnc3C3CC3)nc2n1Cc1ccc(-c2nc(C(F)(F)F)cn2C(C)C)cc1 [Example 42, 2-(4-cyclopropyl-6-methoxypyrimidin-5-yl)-N,N-diethyl-7-(4-(1-isopropyl-4-(trifluoromethyl)-1H-imidazol-2-yl)benzyl)-7H-pyrrolo[2,3-d]pyrimidine-6-carboxamide] | 100 to 500 |
| > 5 | CNC(=O)c1cc2cnc(-c3c(OC)ncnc3C3CC3)nc2n1Cc1ccc(-c2nc(C(F)(F)F)cn2C)cc1 [Example 43, 2-(4-cyclopropyl-6-methoxypyrimidin-5-yl)-N-methyl-7-(4-(1-methyl-4-(trifluoromethyl)-1H-imidazol-2-yl)benzyl)-7H-pyrrolo[2,3-d]pyrimidine-6-carboxamide] | < 100 |
